Experiments:
Type in all cases: in vivo
Setaria faberi (SETFA) [1] = assay: Pre-emergence Test (Table B1), SETFA; conditions: evaluated after 13 days
Zea mays (ZEAMX) [2] = assay: Pre-emergence Test (Table B1), ZEAMX; conditions: evaluated after 13 days
[3] = test system: Echinochloa crus-galli (ECHCG); assay: Pre-emergence Test (Table B1), ECHCG; conditions: evaluated after 13 days
[4] = test system: Amaranthus retoflexus (AMARE); assay: Pre-emergence Test (Table B1), AMARE; conditions: evaluated after 13 days
[5] = test system: Ipomoea hederacea (IPOHE); assay: Pre-emergence Test (Table B1), IPOHE; conditions: evaluated after 13 days
[6] = test system: Echinochloa crus-galli (ECHCG); assay: Post-emergence Test (Table B2), ECHCG; parameters: key: 5-point damage scale: 5=81-100%, 4=61-80%, 3=41-60%, 2=21-40%, 1=0-20%; conditions: evaluated after 13 days
Method in brief: (§1)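 Score: % damage at 13 d on a 5-point scale (5=81-100%; 4=61-80%; 3=41-60%; 2=21-40%; 1=0-20%). Seeds sown in pots, sprayed with test article in acetone/water 50:50 + 0.5% Tween 20; rate in g/ha. Glasshouse 24/16 °C, 14 h light, 65% RH, watered twice daily.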

Zea mays (ZEAMX) [7] = assay: Post-emergence Test (Table B2), ZEAMX; parameters: key: 5-point damage scale: 5=81-100%, 4=61-80%, 3=41-60%, 2=21-40%, 1=0-20%; conditions: evaluated after 13 days
Method in brief: as §1

Setaria faberi (SETFA) [8] = assay: Post-emergence Test (Table B2), SETFA; parameters: key: five-point scale: 5=81-100%, 4=61-80%, 3=41-60%, 2=21-40%, 1=0-20% damage; conditions: rate 250 g/Ha, evaluated after 13 days
Procedure: (§2) Seeds of a variety of test species are sown in standard soil in pots (Ipomoea hederacea (IPOHE), Zea mays (ZEAMX), Echinochloa crus-galli (ECHCG), Amaranthus palmeri (AMAPA), (Amaranthus retoflexus (AMARE), and (Setaria faberi (SETFA)). After 8 days cultivation under controlled conditions in a glasshouse (at 24° C./16° C., day/night; 14 hours light; 65% humidity), the plants are sprayed with an aqueous spray solution derived from the formulation of the technical active ingredient in acetone/water (50:50) solution containing 0.5% Tween 20 (polyoxyethelyene sorbitan monolaurate, CAS RN 9005-64-5). Rate of application is shown in g/ha in the tables below. The test plants are then grown in a glasshouse under controlled conditions in a glasshouse (at 24° C./16° C., day/night; 14 hours light; 65% humidity) and watered twice daily. After 13 days the test is evaluated for the percentage damage caused to the plant. The biological activities are shown in the following table on a five-point scale (5=81-100%; 4=61-80%; 3=41-60%; 2=21-40%; 1=0-20%; -=not tested).

[9] = test system: Amaranthus palmeri (AMAPA); assay: Pre-emergence Test (Table B1), AMAPA; conditions: evaluated after 13 days
[10] = test system: Amaranthus retoflexus (AMARE); assay: Post-emergence Test (Table B2), AMARE; parameters: key: five-point scale: 5=81-100%, 4=61-80%, 3=41-60%, 2=21-40%, 1=0-20% damage; conditions: rate 1000 g/Ha, evaluated after 13 days
Procedure: as §2

[11] = test system: Ipomoea hederacea (IPOHE); assay: Post-emergence Test (Table B2), IPOHE; parameters: key: five-point scale: 5=81-100%, 4=61-80%, 3=41-60%, 2=21-40%, 1=0-20% damage; conditions: rate 1000 g/Ha, evaluated after 13 days
Procedure: as §2

CCn1c(Cc2ccc(Cl)cc2)cc(=O)c(C(=O)O)c1-c1ccc(Cl)c(Cl)c1 [Compound 7, 6-[(4-chlorophenyl)methyl]-2-(3,4-dichlorophenyl)-1-ethyl-4-oxo-pyridine-3-carboxylic acid]
0: Pre-emergence Test, percentage damage caused to the plant (five-point scale), SETFA (Setaria faberi (SETFA) [1]; Rate 1000 g/Ha) | Pre-emergence Test, percentage damage caused to the plant (five-point scale), ZEAMX (Zea mays (ZEAMX) [2]; Rate 1000 g/Ha) | Pre-emergence Test, percentage damage caused to the plant (five-point scale), ECHCG ([3]; Rate 1000 g/Ha) | Pre-emergence Test, percentage damage caused to the plant (five-point scale), AMARE ([4]; Rate 1000 g/Ha) | Pre-emergence Test, percentage damage caused to the plant (five-point scale), IPOHE ([5]; Rate 1000 g/Ha)

CCn1c(Cc2ccccc2C(F)(F)F)cc(=O)c(C(=O)O)c1-c1ccc(Cl)c(Cl)c1 [Compound 11, 2-(3,4-dichlorophenyl)-1-ethyl-4-oxo-6-[[2-(trifluoromethyl)phenyl]methyl]pyridine-3-carboxylic acid]
0: Pre-emergence Test, percentage damage caused to the plant (five-point scale), SETFA (Setaria faberi (SETFA) [1]; Rate 250 g/Ha) | percentage damage caused to the plant, ECHCG ([6]; rate 250 g/Ha) | percentage damage caused to the plant, ZEAMX (Zea mays (ZEAMX) [7]; rate 250 g/Ha) | percentage damage caused to the plant, SETFA (Setaria faberi (SETFA) [8]) | Pre-emergence Test, percentage damage caused to the plant (five-point scale), ECHCG ([3]; Rate 250 g/Ha) | Pre-emergence Test, percentage damage caused to the plant (five-point scale), AMARE ([4]; Rate 250 g/Ha) | Pre-emergence Test, percentage damage caused to the plant (five-point scale), IPOHE ([5]; Rate 250 g/Ha)

CCn1c(Cc2ccc(Cl)cc2F)cc(=O)c(C(=O)O)c1-c1ccc(Cl)c(Cl)c1 [Compound 79, 6-[(4-chloro-2-fluoro-phenyl)methyl]-2-(3,4-dichlorophenyl)-1-ethyl-4-oxo-pyridine-3-carboxylic acid]
0: Pre-emergence Test, percentage damage caused to the plant (five-point scale), AMAPA ([9]; Rate 1000 g/Ha) | Pre-emergence Test, percentage damage caused to the plant (five-point scale), SETFA (Setaria faberi (SETFA) [1]; Rate 1000 g/Ha) | Pre-emergence Test, percentage damage caused to the plant (five-point scale), ZEAMX (Zea mays (ZEAMX) [2]; Rate 1000 g/Ha) | Pre-emergence Test, percentage damage caused to the plant (five-point scale), ECHCG ([3]; Rate 1000 g/Ha) | Pre-emergence Test, percentage damage caused to the plant (five-point scale), AMARE ([4]; Rate 1000 g/Ha) | Pre-emergence Test, percentage damage caused to the plant (five-point scale), IPOHE ([5]; Rate 1000 g/Ha)

CCn1c(Cc2ccc(O)nn2)cc(=O)c(C(=O)O)c1-c1ccc(Cl)c(Cl)c1 [Compound 107, 2-(3,4-dichlorophenyl)-1-ethyl-6-[(6-hydroxypyridazin-3-yl)methyl]-4-oxo-pyridine-3-carboxylic acid]
0: Pre-emergence Test, percentage damage caused to the plant (five-point scale), AMAPA ([9]; Rate 1000 g/Ha) | Pre-emergence Test, percentage damage caused to the plant (five-point scale), SETFA (Setaria faberi (SETFA) [1]; Rate 1000 g/Ha) | percentage damage caused to the plant, ECHCG ([6]; rate 1000 g/Ha) | percentage damage caused to the plant, AMARE [10] | percentage damage caused to the plant, ZEAMX (Zea mays (ZEAMX) [7]; rate 1000 g/Ha) | Pre-emergence Test, percentage damage caused to the plant (five-point scale), ZEAMX (Zea mays (ZEAMX) [2]; Rate 1000 g/Ha) | percentage damage caused to the plant, IPOHE [11] | Pre-emergence Test, percentage damage caused to the plant (five-point scale), ECHCG ([3]; Rate 1000 g/Ha) | Pre-emergence Test, percentage damage caused to the plant (five-point scale), AMARE ([4]; Rate 1000 g/Ha) | Pre-emergence Test, percentage damage caused to the plant (five-point scale), IPOHE ([5]; Rate 1000 g/Ha)

CCn1c(Cc2ccc(C)nn2)cc(=O)c(C(=O)O)c1-c1ccc(Cl)c(Cl)c1 [Compound 139, 2-(3,4-dichlorophenyl)-1-ethyl-6-[(6-methylpyridazin-3-yl)methyl]-4-oxo-pyridine-3-carboxylic acid]
0: Pre-emergence Test, percentage damage caused to the plant (five-point scale), SETFA (Setaria faberi (SETFA) [1]; Rate 250 g/Ha) | percentage damage caused to the plant, ECHCG ([6]; rate 250 g/Ha) | percentage damage caused to the plant, ZEAMX (Zea mays (ZEAMX) [7]; rate 250 g/Ha)

CCn1c(Cc2ccn[nH]c2=O)cc(=O)c(C(=O)O)c1-c1ccc(Cl)c(Cl)c1 [Compound 142, 2-(3,4-dichlorophenyl)-1-ethyl-4-oxo-6-[(6-oxo-1H-pyridazin-5-yl)methyl]pyridine-3-carboxylic acid]
0: Pre-emergence Test, percentage damage caused to the plant (five-point scale), SETFA (Setaria faberi (SETFA) [1]; Rate 250 g/Ha) | Pre-emergence Test, percentage damage caused to the plant (five-point scale), ZEAMX (Zea mays (ZEAMX) [2]; Rate 250 g/Ha) | Pre-emergence Test, percentage damage caused to the plant (five-point scale), ECHCG ([3]; Rate 250 g/Ha)

CCn1c(Cc2nccnc2Cl)cc(=O)c(C(=O)O)c1-c1ccc(Cl)c(Cl)c1 [Compound 144, 6-[(3-chloropyrazin-2-yl)methyl]-2-(3,4-dichlorophenyl)-1-ethyl-4-oxo-pyridine-3-carboxylic acid]
0: Pre-emergence Test, percentage damage caused to the plant (five-point scale), AMAPA ([9]; Rate 250 g/Ha) | Pre-emergence Test, percentage damage caused to the plant (five-point scale), SETFA (Setaria faberi (SETFA) [1]; Rate 250 g/Ha) | Pre-emergence Test, percentage damage caused to the plant (five-point scale), ZEAMX (Zea mays (ZEAMX) [2]; Rate 250 g/Ha) | Pre-emergence Test, percentage damage caused to the plant (five-point scale), ECHCG ([3]; Rate 250 g/Ha) | Pre-emergence Test, percentage damage caused to the plant (five-point scale), IPOHE ([5]; Rate 250 g/Ha)

Source: patent US20260013501A1, “HERBICIDAL DERIVATIVES” (SYNGENTA CROP PROTECTION AG, priority 2022, published 2026)
